According to the NIST ThermoML archive (doi:10.1016/j.fluid.2004.10.022):
Numbers after ± are expanded uncertainties.

Experiments:
[1] = Liquid; for mass density: 101.33 kPa
[2] = refractive index (Na D-line) (dimensionless); conditions: 298.15 K; 101.33 kPa; Liquid; Standard Abbe refractometry

CC(=O)OC(C)(C)C [1,1-dimethylethyl ethanoate]
[1]
Conditions | mass density [kg/m3] | vapor or sublimation pressure [kPa]
298.15 K | 860.53 ± 0.62 | –
307.53 K | – | 8.99 ± 0.13
311.79 K | – | 10.99 ± 0.13
315.64 K | – | 13.09 ± 0.15
319.82 K | – | 15.73 ± 0.17
324.28 K | – | 19.04 ± 0.18
325.46 K | – | 20 ± 0.2
328.94 K | – | 23.09 ± 0.21
332.36 K | – | 26.48 ± 0.23
336.12 K | – | 30.67 ± 0.26
339.58 K | – | 35.02 ± 0.29
342.46 K | – | 39.04 ± 0.31
345.75 K | – | 43.98 ± 0.34
348.84 K | – | 49.09 ± 0.37
352.07 K | – | 54.94 ± 0.38
354.95 K | – | 60.02 ± 0.43
357.17 K | – | 65.33 ± 0.48
359.63 K | – | 70.88 ± 0.49
361.83 K | – | 76.15 ± 0.51
363.85 K | – | 81.26 ± 0.54
366 K | – | 87.01 ± 0.57
367.99 K | – | 92.58 ± 0.59
369.46 K | – | 96.91 ± 0.62
370.68 K | – | 100.64 ± 0.73
370.86 K | – | 100 ± 0.73
372.26 K | – | 105.59 ± 0.82

Conditions | refractive index
[2] | 1.384 ± 0.0007

CC(C)CO [2-methyl-1-propanol]
[1]
Conditions | mass density [kg/m3] | vapor or sublimation pressure [kPa]
298.15 K | 797.83 ± 0.62 | –
342.52 K | – | 20 ± 0.43
381.09 K | – | 100 ± 0.45

Conditions | refractive index
[2] | 1.3937 ± 0.0008

CC(C)(C)O [2-methylpropan-2-ol]
[1]
Conditions | mass density [kg/m3] | vapor or sublimation pressure [kPa]
300.93 K | – | 6.93 ± 0.13
303.15 K | 775.4 ± 0.65 | –
304.86 K | – | 8.76 ± 0.14
309.12 K | – | 11.16 ± 0.15
313.25 K | – | 14.03 ± 0.17
315.48 K | – | 15.81 ± 0.2
320.17 K | – | 20 ± 0.24
320.75 K | – | 20.63 ± 0.24
325.05 K | – | 25.76 ± 0.27
328.35 K | – | 30.37 ± 0.32
331.45 K | – | 35.33 ± 0.36
334.15 K | – | 40.21 ± 0.4
336.65 K | – | 45.17 ± 0.43
338.85 K | – | 49.98 ± 0.47
341.05 K | – | 55.12 ± 0.5
342.95 K | – | 59.92 ± 0.54
344.85 K | – | 65.12 ± 0.57
346.45 K | – | 69.66 ± 0.61
348.15 K | – | 74.84 ± 0.64
349.75 K | – | 79.98 ± 0.68
351.25 K | – | 85.09 ± 0.71
352.65 K | – | 90.08 ± 0.75
353.95 K | – | 94.97 ± 0.78
355.15 K | – | 99.63 ± 0.67
355.59 K | – | 100 ± 0.8
355.65 K | – | 101.33 ± 0.81
356.55 K | – | 105.13 ± 0.87
357.65 K | – | 109.82 ± 0.88
358.85 K | – | 115.07 ± 0.94
359.83 K | – | 119.91 ± 1

Conditions | refractive index
[2] | 1.3851 ± 0.0007

CC(=O)OCC(C)C [2-methylpropyl ethanoate]
[1]
Conditions | mass density [kg/m3] | vapor or sublimation pressure [kPa]
293.15 K | 866.12 ± 0.62 | –
307.43 K | – | 3.99 ± 0.1
315.56 K | – | 5.99 ± 0.1
322.93 K | – | 8.48 ± 0.12
328.64 K | – | 10.98 ± 0.14
335.75 K | – | 14.98 ± 0.15
341.55 K | – | 18.96 ± 0.18
342.95 K | – | 20 ± 0.2
346.88 K | – | 23.44 ± 0.21
351.45 K | – | 27.95 ± 0.24
355.75 K | – | 32.86 ± 0.27
359.66 K | – | 37.89 ± 0.29
363.22 K | – | 42.93 ± 0.32
366.39 K | – | 47.84 ± 0.35
368.76 K | – | 51.85 ± 0.38
371.61 K | – | 57.06 ± 0.4
374.55 K | – | 62.82 ± 0.43
376.93 K | – | 67.79 ± 0.46
379.15 K | – | 72.78 ± 0.48
381.03 K | – | 77.2 ± 0.52
383.63 K | – | 83.72 ± 0.55
385.84 K | – | 89.68 ± 0.57
387.69 K | – | 94.78 ± 0.59
389.16 K | – | 98.95 ± 0.52
389.9 K | – | 100 ± 0.64
391.39 K | – | 105.57 ± 0.77

Conditions | refractive index
[2] | 1.3876 ± 0.0007
